Laboratory results: paper PMC3836994, “Killer Bee Molecules: Antimicrobial Peptides as Effector Molecules to Target Sporogonic Stages of Plasmodium” (PLoS Pathogens, 2013)

Legend:
[1] = test system: Plasmodium spp.; conditions: An. gambiae infected with a variety of Plasmodium spp., magainin injected into the midgut haemocoel; ref [29]; cited from earlier work
Text: (§1) Supplement ppat.1003790.s001.doc, table 1: Table S1. Peptide sequence, activity and source. | column: Sequence and description

[2] = test system: P. falciparum; assay: Field P. falciparum from gametocyte carriers membrane-fed to An. gambiae (Mali); assay type: in vivo, Plasmodium falciparum; conditions: 50 µM
Text: Nyaganabougou, a village approximately 60 km south-west of the Malian capital, Bamako, was used as a site for the source of donors of malaria-infected blood. Due to its proximity to the river Niger, which provides perennial mosquito breeding sites, Nyaganabougou has high numbers of infected individuals and an extended transmission season. Mosquitoes used to establish the An. gambiae Mali colony used for this study were originally collected in the village of Kenieroba (a distance of 15 km from Nyaganabougou). Potential male and female gametocyte carriers between the ages of 6–10 were screened by thick smear and parasite species and density determined by local staff, led by Saibou Doumbia.
Gametocyte carriers were taken to the Malaria Research and Training Centre at the University of Bamako for blood donation. Approximately 4 ml of blood was extracted from carriers and immediately divided into 3 Hemotek membrane feeders for testing 2 separate AMPs and one control for each carrier. Peptides were added to 950 µl of gametocytaemic blood for a final concentration of 50 µM. All parasite-positive individuals were subsequently treated appropriately for parasites and associated symptoms, as determined by, and carried out by, local health workers in Nyaganabougou.
Approximately 120 adult female An. gambiae (Mali, 4–7 days old) were starved overnight, and allowed to feed on the gametocytaemic blood/AMP mix for 30 min. Engorged females were maintained on 10% glucose with 0.05% PABA for 8 days before dissection. No oviposition sites were provided so that fecundity could be measured by determining retained eggs. Mosquito wing length, numbers of retained eggs and oocysts were recorded, and triplicate peptide experiments were carried out on different mosquito cohorts, using blood from different donors. Where possible, a minimum of 50 mosquitoes were dissected for each condition.

[3] = test system: wide spectrum of microorganisms; conditions: x as strong as magainin 2; ref [83]; cited from earlier work
Text: as §1

Row | Sequence | Oocyst development abolished [1] | Oocyst prevalence (oocyst positive mosquitoes), peptide ([2]; Replicate 1, blood of gametocyte carriers, progeny of field An. gambiae) | Oocyst intensity (mean number of oocysts per gut, range in parentheses), peptide ([2]; Replicate 1, field parasites and mosquitoes) | Reduction of prevalence ([2]; single preliminary experiment) | Activity relative to magainin 2 [3]
1 | GIGKFLHSAKKFGKAFVGEIMNS [Magainin II, AMP from Xenopus laevis skin, forms pores] | GIGKFLHSAKKFGKAFVGEIMNS. AMP from Xenopus laevis skin. Forms pores and induces cell permeabilisation. An. gambiae infected with a variety of Plasmodium spp. injected with magainin into the midgut haemocoel abolished oocyst development >80%. |  |  |  | 
2 | KGRGKQGGKVRAKAKTRSS [Parasin, Parasin I, Isolated from the skin mucus of wounded catfish] |  | 3% (64) | <1 (0–2) | 80% | KGRGKQGGKVRAKAKTRSS. Isolated from the skin mucus of wounded catfish. Strong activity (12-100x as strong as magainin 2) against a wide spectrum of microorganisms, without any haemolytic activity.
